# Measurements from a melting point compilation (Tetko et al.; mined from patent text by program, amines drawn as free bases though some values may be those of a salt).
row,Compound,melting point [°C]
1,CCOC(=O)c1cc(=O)c2cc(O)c(=O)ccc2[nH]1,169 to 172
2,CCc1[nH]c(=S)[nH]c1C(=O)c1ccncc1,275
3,O=c1cc(-c2cncnc2)oc2c(O)c(O)ccc12,> 300
4,CCN(CC)C(=O)c1cc([N+](=O)[O-])cnc1CBr,62 to 64
5,COc1ccc(S(=O)(=O)Nc2cccnc2Nc2ccc(OC(=O)C(C)(C)C)cc2)cc1,188 to 189
6,CC(=O)NCCCCCC(=O)N1CC1C#N (stereo unspecified),74 to 77
7,CC1(C)[C@@H](Cn2nccn2)CC[C@@]1(C)NCC(=O)N1C[C@@H](F)C[C@H]1C#N,84 to 87
8,N#CS/C=C\C(=O)OCc1ccccc1,48.5 to 50.5
9,O=C(C(=C1NCCCS1)[N+](=O)[O-])c1ccccc1,137 to 140
10,CN(CCO)CCn1nc2c3c(c(NCCNCCO)ccc31)C(=O)c1c(O)ccc(O)c1-2,191 to 194
11,CCOC(=O)N1CCN(C(=O)Oc2ccc([N+](=O)[O-])cc2)CC1,125 to 128
12,CS(=O)c1cccc(NC(=O)NCC(=O)N(CC(=O)N2CCCc3ccccc32)c2ccccc2)c1 (racemic),140
13,CN1CCN(CCCNc2cc(Oc3ccc4c(C(=O)Nc5cc(C(C)(C)C)nn5-c5ccc(F)cc5)cccc4c3)ncn2)CC1,131 to 133
14,O=C(c1ccc2c(c1)OCCO2)c1ccc2[nH]c(=O)nc(-c3cccc(Cl)c3)c2c1,255
15,COc1ccnc(OC)c1CON=C(C#N)c1cc(C)cc(C)n1,196 to 201
16,Cc1ccc2oc(=O)c(C(=O)Oc3cc([N+](=O)[O-])ccc3[N+](=O)[O-])cc2c1,225 to 229
17,CN1CCC(OC2c3ccccc3CCn3c2nc(-c2ccccc2)c3C(N)=O)CC1 (stereo unspecified),102
18,CCc1cc(C)cc(C)c1CC(=O)O,128 to 129
19,CSc1sc(-c2ccn(C)n2)c2c1-c1oncc1C(C)(C)C2,128 to 130
20,CNC(Cc1ccccc1)C(=O)N[C@@H](Cc1cccc2ccccc12)C(=O)O (stereo partly specified),104 to 107
21,O=C1c2nccnc2C(=O)N1c1ccc2ccc(O)nc2n1,373
22,O=S(=O)(CC(F)(F)F)Nc1ccc(Oc2ccc(F)cc2F)cc1,105 to 108
23,Cc1nc2cc(CN3CCN(C(c4ccccc4)c4ccccc4)CC3)ccc2n1C,206
24,CN(C)C(=O)Nc1snc(N(C)C)c1C#N,203 to 204

row,Compound,melting point [°C]
1,CCOC(=O)C(Cc1ccccc1)CP(=O)(OCC)OCC (stereo unspecified),58 to 72
2,O=c1ccn(-c2cc3[nH]c(=O)c(=O)[nH]c3cc2[N+](=O)[O-])cc1[N+](=O)[O-],> 300
3,O=C(O)c1cc(=O)c2cccc(/C=C/c3ccc(OCCCCc4ccccc4)cc3F)c2o1,73.4 to 73.5
4,O=C(O)Cc1ccc(Sc2ccc(Cl)cc2)cc1,135 to 140
5,CCOC(=O)c1cccc2c1Nc1ccc(C(=O)c3ccccc3)cc1N2C(=O)OC,112 to 115
6,CC(C)(C)OC(=O)Nc1cc(OC(C)(C)C)c(-c2ccccc2F)cc1NC(=O)CC(=O)c1cccc(-n2ccnn2)c1,47 to 50
7,Cc1c(F)c(F)c(C(=O)N[C@@H](C)C(C)C)c(F)c1F,146 to 147
8,ON=C1CC(c2ccccc2)c2ccccc21 (stereo unspecified),123 to 125
9,CCCCNC(=O)Nc1ccc(OC(=O)NCCCC)cc1C(=O)NCC1CCN(C(c2ccccc2)c2ccccc2)CC1,197 to 199
10,CCOC(=O)c1cnc2n(c1=O)c1ccccc1c1ncc(C(=O)OCC)c(=O)n12,193 to 195
11,COc1cccc(NC(=O)c2ccccc2N)c1,75 to 77
12,O=C(CCCN1CCc2ccccc2C1)c1ccc(F)cc1,69 to 71
13,O=C(Nc1ccc(Oc2ccnc(N3CCCC3)n2)c2ccccc12)c1cc(F)cc(N2CCOCC2)c1,205 to 207
14,Cc1ccc(S(=O)(=O)OCc2cc([N+](=O)[O-])ccc2F)cc1,89 to 91
15,CSc1ncc2c(=O)[nH]c(-c3ccccc3OCC3CC3)nc2n1,186 to 187
16,O=C(O)[C@@H](Cc1ccccc1)NS(=O)(=O)N1CCN(c2ccc(Cl)cc2)CC1,176 to 178
17,Cc1ncnn1-c1cc(F)ccc1CNC(=O)c1nc2n(c(=O)c1OCc1ccccc1)CCN2c1ccccc1,181
18,CC(C)(C)OC(=O)N[C@H]1CC[C@H](CC(=O)O)CC1,161 to 163
19,COc1ccc(F)c2c1C(=O)c1ccncc1C2=O,> 220
20,Cc1cc2c(C=O)c3ccccc3c(C=O)c2cc1C,203 to 204
21,CCN(CC)c1ccc(C2(c3c(C)n(CC)c4ccccc34)OC(=O)c3ccccc32)c(OCc2ccccc2)c1 (stereo unspecified),138
22,N#Cc1ccc(OCCc2cccc(F)c2)cc1,79 to 81
23,CCCCCCC(=O)c1ccc2cc(OC)ccc2c1,69 to 72
24,N#CCSc1nc(Cl)cc(-c2ccccc2)n1,136 to 141

row,Compound,melting point [°C]
1,Cc1nn(-c2ccccc2)c(C)c1CC(N)=O,169 to 170
2,CC(C)(C)[Si](C)(C)OCCN(CCON1C(=O)c2ccccc2C1=O)CCON1C(=O)c2ccccc2C1=O,56 to 58
3,COC(=O)C(C)c1ccc2cc(OCc3ccc4ccccc4n3)ccc2c1 (stereo unspecified),91 to 93
4,C[C@@]1(c2ccccc2)OC(c2ccccc2)=NC[C@H]1OC(=O)Nc1ccccc1 (racemic),180
5,Cc1ccc(SN=C2C(=O)N3C(C(=O)OC(c4ccccc4)c4ccccc4)=C(CSc4nnnn4C)CSC23)cc1 (stereo unspecified),154 to 155
6,CC(c1ccc(Cl)cc1)N1C(=O)CC(Br)C1=O (stereo unspecified),96
7,COc1cc2c(=O)n(CCN3CCN(C)CC3)c3c4cc5c(cc4ncc3c2cc1OC)OCO5,244 to 246
8,COc1ccc(-c2ccn(-c3ccc4c5c(n(C)c4c3)CN(C(=O)OC(C)(C)C)CC5)c(=O)c2)cc1,306 to 308
9,CCOC(=O)C1=C(C)NC(COC(=O)CCC(=O)O)=C(C(=O)OCC)C1c1ccccc1Cl (stereo unspecified),130 to 131
10,CCCCCCc1csc2c(CCCCCC)csc12,57.5 to 59.1
11,CCOC(=O)c1c(C)nc2c(c1N)c1c(n2Cc2ccccc2)CCCC1,146 to 147
12,O=C(NCCCBr)c1cnn(-c2nc(-c3cccc(C(F)(F)F)c3)cs2)c1C(F)(F)F,187 to 190
13,Cc1ncc(-c2ccc([C@H](C)N3CC[C@](CCCO)(c4ccc(F)cc4)OC3=O)cc2)cn1,166 to 168
14,COC(=O)c1cncc(O)c1,186 to 187
15,Cc1cn2nc(-c3ccccc3)nc2cc1C(=O)O,228 to 233
16,N#Cc1cccc(CCc2n[nH]c3c2c(=O)n(-c2ccccc2)c2ncccc32)c1,220 to 224
17,COc1cc2c(c3c1OC(C)(C)C3)C(c1ccc(N)cc1)=NC(C)(C)C2,192 to 195
18,COc1ccc(S(=O)(=O)N2C(=O)C(OC(=O)Oc3ccccc3)(c3ccccc3OC(F)(F)F)c3cc(Cl)ccc32)c(OC)c1 (stereo unspecified),203 to 204
19,COC(=O)CC(=O)CC(O)/C=C/C1=C(c2ccc(F)cc2)C=C(c2ccc(F)cc2)CC12CCCC2 (stereo unspecified),96 to 99
20,COc1ccc(N2CCN(c3c(C)c4c(c(C(C)O)c3C)OC(C)(C)C4)CC2)cc1 (stereo unspecified),183 to 186
21,CC(=O)O[C@H](CCc1ccc([N+](=O)[O-])cc1)C(=O)O,108 to 109
22,CCCN1CC(C(=O)OC)CC2c3cccc4[nH]cc(c34)CC21 (stereo unspecified),202 to 204
23,CC(C)(C)C1=C(C(=O)OCc2ccc([N+](=O)[O-])cc2)N2C(=O)C(C)(C)C2O1 (stereo unspecified),119 to 120
24,CC(C(=O)O)c1ccc(-c2cn3cccnc3n2)cc1 (stereo unspecified),248

row,Compound,melting point [°C]
1,COc1ccc(CCC(C)N(Cc2ccccc2)CC(O)c2ccc(OCc3ccccc3)c(N)c2)cc1OC (stereo unspecified),115
2,CCCNC(=O)NCc1ccc2c(c1)C(=O)N(C1CCC(=O)NC1=O)C2=O (stereo unspecified),166 to 168
3,CC(O)(CCSc1cc(C(C)(C)C)c(O)c(C(C)(C)C)c1)CC(=O)CCSc1cc(C(C)(C)C)c(O)c(C(C)(C)C)c1 (stereo unspecified),108 to 110
4,COc1ccc(-n2c(=O)c3c(Cc4ccccc4)n[nH]c3c3cccnc32)cc1,> 320
5,CCCCc1nc2ccccc2n1Cc1ccc(-c2ccccc2C=O)cc1,117 to 118
6,CCCCOc1cc(C(=O)NCCN(CC)CC)cc(S(N)(=O)=O)c1Cc1ccccc1,163
7,O=C(Nc1ccn(C2OC(CO)C(O)C2(F)F)c(=O)n1)OCc1ccc([N+](=O)[O-])s1 (stereo unspecified),144 to 148
8,COc1ccc(C(=O)Nc2ccc(C(C)(C)CN3CCOC3=O)cc2)cc1OC,190 to 191
9,CC(C=CC=C(C)c1cc(C(C)(C)C)cc(C(C)(C)C)c1)=CC(=O)O,196 to 198
10,O=C(O)c1cn(C2CC2)c2cc(N3CC4CC4C3)c(F)cc2c1=O (stereo unspecified),290
11,Cc1cccc(NC(=N)Nc2cccc(C)c2)c1,105 to 106
12,COc1cc(CCl)c(CCl)cc1OCCCl,117 to 118
13,N#Cc1cc([N+](=O)[O-])ccc1Oc1ccccc1,126
14,Cc1ccc(C(C)(C)C)c(SC2=C(O)CC(CCc3ccccc3)(CCC(C)C)OC2=O)c1 (stereo unspecified),46 to 50
15,COC(=O)c1ccc2c(c1)c(Cc1ccc(C(=O)Cl)cc1OC)cn2C,147 to 149
16,CC(C)(C)Cn1c(=O)c(=O)[nH]c2cc(Cl)c([N+](=O)[O-])cc21,270 to 271
17,Cc1ccc(NC(N)=S)nc1,178 to 181
18,COc1ccc(C(=O)[C@H]2CCCN2C(=O)C(F)(F)F)cc1OC,121 to 123
19,COC(=O)Cc1ccc(OCCNC(=O)C2Cc3c(OC)cccc3N2S(=O)(=O)c2ccc(-c3cccc(C(F)(F)F)c3)cc2)cc1 (stereo unspecified),64
20,Cc1nc2nc(S(=O)(=O)Cl)nn2c(C)c1Cl,131 to 133
21,O=c1c2ccccc2[nH]n1CSc1ccccc1,167 to 168
22,COc1ccc(-c2csc3ccc([N+](=O)[O-])c(C(=O)N4CCOCC4)c23)cc1OC,144
23,O=S(=O)(O)c1cccc(Cl)n1,274 to 275
24,N#CCNC(=O)C1(NC(=O)c2ccc(C3CCN(C4CCCC4)CC3)cc2)CCCCC1,233 to 234
